According to US12509444B2, “Compounds and methods for CD73 modulation and indications therefor” (Plexxikon Inc., priority 2019, dated 2025):

Assays:
human CD73 = target: T1, human CD73 (Homo sapiens, UniProt P21589); assay: Inhibitor activity against CD73 in cell based assay (CD73 expressing CHO-K1 cells); settings: CHO-K1 cells expressing human CD73, 150 μM AMP, 4 hours of incubation; read-out: CHO-K1 CELL VARIANT: CD73 IC50
T1 construct: expressed in transfected cells
T1 sequence (P21589 27-549): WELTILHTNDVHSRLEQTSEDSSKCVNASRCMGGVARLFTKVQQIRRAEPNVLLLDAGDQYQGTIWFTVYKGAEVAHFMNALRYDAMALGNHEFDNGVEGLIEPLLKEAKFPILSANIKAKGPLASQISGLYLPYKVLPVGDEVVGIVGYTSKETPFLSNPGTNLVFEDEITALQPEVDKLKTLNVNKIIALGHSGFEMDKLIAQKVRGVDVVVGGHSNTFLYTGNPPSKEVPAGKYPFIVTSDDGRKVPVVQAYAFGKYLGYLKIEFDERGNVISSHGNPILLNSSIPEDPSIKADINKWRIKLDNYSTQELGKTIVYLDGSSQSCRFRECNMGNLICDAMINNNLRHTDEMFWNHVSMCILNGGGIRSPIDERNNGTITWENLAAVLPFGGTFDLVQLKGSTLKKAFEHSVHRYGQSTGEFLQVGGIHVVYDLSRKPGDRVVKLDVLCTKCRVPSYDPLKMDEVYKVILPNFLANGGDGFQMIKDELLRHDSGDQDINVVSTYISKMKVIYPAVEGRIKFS
Method in brief: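 Residual supernatant AMP was quantified via CellTiter-Glo luminescence (1 μM ATP added, 30 min, room temperature) after a 4 h exposure of human CD73-expressing CHO-K1 cells to 150 μM AMP plus compound, top final 10 μM, 8 points. IC50 came from nonlinear regression of percent inhibition.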

[1] = target: T2, Human CD73 (amino acid residues 27-549) (Homo sapiens, UniProt P21589); assay: CD73 enzymatic assay (luciferase-based indirect assay, CellTiter-Glo); type: biochemical; settings: 0.4 nM CD73, 150 μM AMP, 1 hour at room temperature
T2 construct: Human CD73 (amino acid residues 27-549); His tag (N); made in house; host or cells: E. coli
T2 sequence (P21589 27-549): T1 sequence (P21589 27-549)
Method in brief: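 Residual AMP inhibits luciferase, so luminescence reports CD73 turnover; read with CellTiter-Glo 2.0 plus 1 μM final ATP, 30 min. Reaction used 0.4 nM N-His CD73 (27-549, E. coli), 150 μM AMP, HEPES pH 7.4 with Tween 20, 1 h at room temperature. IC50 fitted by nonlinear regression.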

Row | Compound | IC50 (human CD73) [µM] | IC50 [1] [µM]
1 | C[C@H](O)C(=O)N1CCC(NC(=O)O[C@@H]2CCN(c3cn[nH]c(=O)c3Cl)C2)CC1 [P-0399, (R)-1-(5-chloro-6-oxo-1,6-dihydropyridazin-4-yl)pyrrolidin-3-yl (1-((S)-2-hydroxypropanoyl)piperidin-4-yl)carbamate] | 0.001 to 10 | 0.001 to 10
2 | O=C(NC1CCN(C(=O)C2CCCO2)CC1)O[C@@H]1CCN(c2cn[nH]c(=O)c2Cl)C1 (stereo partly drawn) [P-0401, (R)-1-(5-chloro-6-oxo-1,6-dihydropyridazin-4-yl)pyrrolidin-3-yl (1-(tetrahydrofuran-2-carbonyl)piperidin-4-yl)carbamate] | 0.001 to 10 | 0.001 to 10
3 | O=C(NC1CCN(C(=O)c2ccc(F)cc2)CC1)O[C@@H]1CCN(c2cn[nH]c(=O)c2Cl)C1 [P-0404, (R)-1-(5-chloro-6-oxo-1,6-dihydropyridazin-4-yl)pyrrolidin-3-yl (1-(4-fluorobenzoyl)piperidin-4-yl)carbamate] | 0.001 to 10 | 0.001 to 10
4 | CC1(NC(=O)O[C@@H]2CCN(c3cn[nH]c(=O)c3Cl)C2)CCCC1 [P-0405, (R)-1-(5-chloro-6-oxo-1,6-dihydropyridazin-4-yl)pyrrolidin-3-yl (1-methylcyclopentyl)carbamate] | 0.001 to 10 | 0.001 to 10
5 | O=C(NC1(C2CCCC2)CC1)O[C@@H]1CCN(c2cn[nH]c(=O)c2Cl)C1 [P-0406, (R)-1-(5-chloro-6-oxo-1,6-dihydropyridazin-4-yl)pyrrolidin-3-yl (1-cyclopentylcyclopropyl) carbamate] | 0.001 to 10 | 0.001 to 10
6 | O=C1CC2CCC(C1)C2NC(=O)O[C@@H]1CCN(c2cn[nH]c(=O)c2Cl)C1 (stereo partly drawn) [P-0407, (R)-1-(5-chloro-6-oxo-1,6-dihydropyridazin-4-yl)pyrrolidin-3-yl (3-oxobicyclo[3.2.1]octan-8-yl)carbamate] | 0.001 to 10 | 0.001 to 10
7 | CC1(C)CCCCC1NC(=O)O[C@@H]1CCN(c2cn[nH]c(=O)c2Cl)C1 (stereo partly drawn) [P-0413, (R)-1-(5-chloro-6-oxo-1,6-dihydropyridazin-4-yl)pyrrolidin-3-yl (2,2-dimethylcyclohexyl)carbamate] | 0.001 to 10 | 0.001 to 10
8 | NCCn1ncc(N2CC[C@@H](OC(=O)NC3CCC(F)(F)CC3)C2)c(Cl)c1=O [P-0414, (R)-1-(1-(2-aminoethyl)-5-chloro-6-oxo-1,6-dihydropyridazin-4-yl)pyrrolidin-3-yl (4,4-difluorocyclohexyl)carbamate] | 0.001 to 10 | 0.001 to 10
9 | NCCn1ncc(N2CC[C@@H](OC(=O)NC3CCCC3)C2)c(Cl)c1=O [P-0415, (R)-1-(1-(2-aminoethyl)-5-chloro-6-oxo-1,6-dihydropyridazin-4-yl)pyrrolidin-3-yl cyclopentylcarbamate] | 0.001 to 10 | 0.001 to 10
10 | O=C(NC1CCN(C(=O)c2cccnc2)CC1)O[C@@H]1CCN(c2cn[nH]c(=O)c2Cl)C1 [P-0416, (R)-1-(5-chloro-6-oxo-1,6-dihydropyridazin-4-yl)pyrrolidin-3-yl (1-nicotinoylpiperidin-4-yl)carbamate] | 0.001 to 10 | 0.001 to 10
11 | O=C(NC1CCN(C(=O)c2ccc(Cl)nc2)CC1)O[C@@H]1CCN(c2cn[nH]c(=O)c2Cl)C1 [P-0418, (R)-1-(5-chloro-6-oxo-1,6-dihydropyridazin-4-yl)pyrrolidin-3-yl (1-(6-chloronicotinoyl)piperidin-4-yl)carbamate] | 0.001 to 10 | 0.001 to 10
12 | O=C(NC1CCN(C(=O)c2ccc(C(F)(F)F)nc2)CC1)O[C@@H]1CCN(c2cn[nH]c(=O)c2Cl)C1 [P-0419, (R)-1-(5-chloro-6-oxo-1,6-dihydropyridazin-4-yl)pyrrolidin-3-yl (1-(6-(trifluoromethyl)nicotinoyl)piperidin-4-yl)carbamate] | 0.001 to 10 | 0.001 to 10
13 | O=C(NC1CCN(C(=O)Cc2ccccc2Cl)CC1)O[C@@H]1CCN(c2cn[nH]c(=O)c2Cl)C1 [P-0421, (R)-1-(5-chloro-6-oxo-1,6-dihydropyridazin-4-yl)pyrrolidin-3-yl (1-(2-(2-chlorophenyl)acetyl)piperidin-4-yl)carbamate] | 0.001 to 10 | 0.001 to 10
14 | O=C(NC1C2CCC1CC(O)C2)O[C@@H]1CCN(c2cn[nH]c(=O)c2Cl)C1 (stereo partly drawn) [P-0423, (R)-1-(5-chloro-6-oxo-1,6-dihydropyridazin-4-yl)pyrrolidin-3-yl (3-hydroxybicyclo[3.2.1]octan-8-yl)carbamate] | 0.001 to 10 | 0.001 to 10
15 | CC1CCCC(NC(=O)O[C@@H]2CCN(c3cn[nH]c(=O)c3Cl)C2)C1 (stereo partly drawn) [P-0425, (R)-1-(5-chloro-6-oxo-1,6-dihydropyridazin-4-yl)pyrrolidin-3-yl (3-methylcyclohexyl)carbamate] | 0.001 to 10 | 0.001 to 10

Results, then the compound that gave them:

Row | IC50 (human CD73) [µM] | IC50 [1] [µM] | Compound
16 | 0.001 to 10 | 0.001 to 10 | C[C@@H](O)C(=O)N1CCC(NC(=O)O[C@@H]2CCN(c3cn[nH]c(=O)c3Cl)C2)CC1 [P-0400, (R)-1-(5-chloro-6-oxo-1,6-dihydropyridazin-4-yl)pyrrolidin-3-yl (1-((R)-2-hydroxypropanoyl)piperidin-4-yl)carbamate]
17 | 0.001 to 10 | 0.001 to 10 | O=C(NC1CCN(C(=O)c2ccccc2F)CC1)O[C@@H]1CCN(c2cn[nH]c(=O)c2Cl)C1 [P-0402, (R)-1-(5-chloro-6-oxo-1,6-dihydropyridazin-4-yl)pyrrolidin-3-yl (1-(2-fluorobenzoyl)piperidin-4-yl)carbamate]
18 | 0.001 to 10 | 0.001 to 10 | O=C(NC1CCN(C(=O)c2ccccc2C(F)(F)F)CC1)O[C@@H]1CCN(c2cn[nH]c(=O)c2Cl)C1 [P-0403, (R)-1-(5-chloro-6-oxo-1,6-dihydropyridazin-4-yl)pyrrolidin-3-yl (1-(2-(trifluoromethyl)benzoyl)piperidin-4-yl)carbamate]
19 | 0.001 to 10 | 0.001 to 10 | CCC1(NC(=O)O[C@@H]2CCN(c3cn[nH]c(=O)c3Cl)C2)CCCC1 [P-0408, (R)-1-(5-chloro-6-oxo-1,6-dihydropyridazin-4-yl)pyrrolidin-3-yl (1-ethylcyclopentyl)carbamate]
20 | 0.001 to 10 | 0.001 to 10 | CS(=O)(=O)N[C@H]1CC[C@H](NC(=O)O[C@@H]2CCN(c3cnn(CC(O)CO)c(=O)c3Cl)C2)CC1 (stereo partly drawn) [P-0409, (3R)-1-(5-chloro-1-(2,3-dihydroxypropyl)-6-oxo-1,6-dihydropyridazin-4-yl)pyrrolidin-3-yl ((1r,4R)-4-(methylsulfonamido)cyclohexyl)carbamate]
21 | 0.001 to 10 | 0.001 to 10 | O=C(NC1(C2CCCCC2)CC1)O[C@@H]1CCN(c2cn[nH]c(=O)c2Cl)C1 [P-0410, (R)-1-(5-chloro-6-oxo-1,6-dihydropyridazin-4-yl)pyrrolidin-3-yl (1-cyclohexylcyclopropyl) carbamate]
22 | 0.001 to 10 | 0.001 to 10 | N#CCC1(NC(=O)O[C@@H]2CCN(c3cn[nH]c(=O)c3Cl)C2)CCCC1 [P-0411, (R)-1-(5-chloro-6-oxo-1,6-dihydropyridazin-4-yl)pyrrolidin-3-yl (1-(cyanomethyl)cyclopentyl) carbamate]
23 | 0.001 to 10 | 0.001 to 10 | Cc1csc(C2(NC(=O)O[C@@H]3CCN(c4cn[nH]c(=O)c4Cl)C3)CCCC2)n1 [P-0412, (R)-1-(5-chloro-6-oxo-1,6-dihydropyridazin-4-yl)pyrrolidin-3-yl (1-(4-methylthiazol-2-yl)cyclopentyl)carbamate]
24 | 0.001 to 10 | 0.001 to 10 | O=C(NC1CCN(C(=O)c2cccnc2Cl)CC1)O[C@@H]1CCN(c2cn[nH]c(=O)c2Cl)C1 [P-0417, (R)-1-(5-chloro-6-oxo-1,6-dihydropyridazin-4-yl)pyrrolidin-3-yl (1-(2-chloronicotinoyl)piperidin-4-yl)carbamate]
25 | 0.001 to 10 | 0.001 to 10 | O=C(NC1CCN(C(=O)Cc2ccccc2Br)CC1)O[C@@H]1CCN(c2cn[nH]c(=O)c2Cl)C1 [P-0420, (R)-1-(5-chloro-6-oxo-1,6-dihydropyridazin-4-yl)pyrrolidin-3-yl (1-(2-(2-bromophenyl)acetyl)piperidin-4-yl)carbamate]
26 | 0.001 to 10 | 0.001 to 10 | O=C(NC1CCN(C(=O)Cc2c(F)cccc2Cl)CC1)O[C@@H]1CCN(c2cn[nH]c(=O)c2Cl)C1 [P-0422, (R)-1-(5-chloro-6-oxo-1,6-dihydropyridazin-4-yl)pyrrolidin-3-yl (1-(2-(2-chloro-6-fluorophenyl)acetyl)piperidin-4-yl)carbamate]
27 | 0.001 to 10 | 0.001 to 10 | O=C(NC1CCCC(F)(F)C1)O[C@@H]1CCN(c2cn[nH]c(=O)c2Cl)C1 (stereo partly drawn) [P-0424, (R)-1-(5-chloro-6-oxo-1,6-dihydropyridazin-4-yl)pyrrolidin-3-yl (3,3-difluorocyclohexyl)carbamate]
